Measured values published in US6737383B1, “Herbicidal oxadiazolidines” (priority 1999, dated 2004).

Columns and labels:
bedstraw = test: Test B pre/postemergence bedstraw; type: in vivo, Galium aparine
Procedure, shortened: (§1)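 Response is a visual 0-to-10 score relative to untreated plants, where 0 means no effect and 10 means complete control, taken twelve to sixteen days after application. Treatments went onto soil at planting and onto foliage of 1- to 4-leaf plants, using a surfactant-containing non-phytotoxic solvent.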

blackgrass = test: Test B pre/postemergence blackgrass; type: in vivo, Alopecurus myosuroides
Procedure, shortened: as §1

surinam grass = test: Test B pre/postemergence surinam grass; type: in vivo, Brachiaria decumbens
Procedure, shortened: as §1

cocklebur = test: Test B pre/postemergence cocklebur; type: in vivo, Xanthium strumarium
Procedure, shortened: as §1

corn = test: Test B pre/postemergence corn; type: in vivo, Zea mays
Procedure, shortened: as §1

crabgrass = test: Test B pre/postemergence crabgrass; type: in vivo, Digitaria sanguinalis
Procedure, shortened: as §1

giant foxtail = test: Test B pre/postemergence giant foxtail; type: in vivo, Setaria faberii
Procedure, shortened: as §1

morningglory = test: Test B pre/postemergence morningglory; type: in vivo, Ipomoea hederacea
Procedure, shortened: as §1

soybean = test: Test B pre/postemergence soybean; type: in vivo, Glycine max
Procedure, shortened: as §1

velvetleaf = test: Test B pre/postemergence velvetleaf; type: in vivo, Abutilon theophrasti
Procedure, shortened: as §1

wheat = test: Test B pre/postemergence wheat; type: in vivo, Triticum aestivum
Procedure, shortened: as §1

wild oat = test: Test B pre/postemergence wild oat; type: in vivo, Avena fatua
Procedure, shortened: as §1

purple nutsedge = test: Test B pre/postemergence purple nutsedge; type: in vivo, Cyperus rotundus
Procedure, shortened: as §1

rice = test: Test B flood test rice; type: in vivo, Oryza sativa
Procedure, shortened: (§2)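 Each value is a visual injury score relative to controls, with 10 meaning complete control and 0 no effect. Evaluation took place twelve to sixteen days after the 2-leaf-stage plants were treated and kept in the greenhouse.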

smallflower flatsedge = test: Test B flood test smallflower flatsedge; type: in vivo, Cyperus difformis
Procedure, shortened: as §2

duck salad = test: Test B flood test duck salad; type: in vivo, Heteranthera limosa
Procedure, shortened: as §2

bamyardgrass = test: Test B flood test barnyardgrass; type: in vivo, Echinochloa crus-galli
Procedure, shortened: as §2

[1] = Preemergence, Rate 62 g/ha, scale of 0 to 10 where 0 is no effect and 10 is complete control
[2] = Preemergence, Rate 125 g/ha, 0 is no effect, 10 is complete control
[3] = Preemergence, Rate 250 g/ha, scale 0 to 10, 0 is no effect, 10 is complete control
[4] = Preemergence, Rate 500 g/ha, scale of 0 to 10 where 0 is no effect and 10 is complete control
[5] = Rate 62 g/ha, Postemergence, scale of 0 to 10 where 0 is no effect and 10 is complete control
[6] = Rate 125 g/ha, Postemergence, scale 0 to 10
[7] = Rate 500 g/ha, Postemergence, scale 0 to 10
[8] = Rate 62 g/ha, headed Pre-emergence (flood test species), scale 0 to 10 (0 no effect, 10 complete control)
[9] = Rate 125 g/ha, Pre-emergence, flood test species, scale 0 to 10 where 0 is no effect and 10 is complete control
[10] = Rate 250 g/ha, Pre-emergence, flood-test species, scale 0 to 10, 0 is no effect, 10 is complete control
[11] = Rate 500 g/ha, headed Pre-emergence (flood test species), scale 0 to 10 (0 no effect, 10 complete control)

SMILES: CCC(CC)N(C(=O)n1oc(=O)n(-c2ccccc2C)c1=O)c1ccc(F)cc1 [Compound 193]
- Bedstraw plant response rating (bedstraw; [1]): 0
- Bedstraw plant response rating (0 to 10 scale) (bedstraw; [2]): 0
- Bedstraw plant response rating (bedstraw; [3]): 0
- Plant response rating, Bedstraw (bedstraw; [4]): 0
- Bedstraw plant response rating (bedstraw; [5]): 0
- Bedstraw plant response rating (bedstraw; [6]): 0
- Plant response rating (0 to 10; 0 is no effect, 10 is complete control), Bedstraw (bedstraw; Rate 250 g/ha, Postemergence): 0
- Bedstraw plant response rating (bedstraw; [7]): 0
- Blackgrass plant response rating (blackgrass; [1]): 0
- Blackgrass plant response rating (0 to 10 scale) (blackgrass; [2]): 0
- Blackgrass plant response rating (blackgrass; [3]): 0
- Plant response rating, Blackgrass (blackgrass; [4]): 0
- Blackgrass plant response rating (blackgrass; [5]): 0
- Blackgrass plant response rating (blackgrass; [6]): 0
- Plant response rating (0 to 10; 0 is no effect, 10 is complete control), Blackgrass (blackgrass; Rate 250 g/ha, Postemergence): 0
- Blackgrass plant response rating (blackgrass; [7]): 0
- B. signalgrass plant response rating (surinam grass; [1]): 0
- B. signalgrass plant response rating (0 to 10 scale) (surinam grass; [2]): 0
- B. signalgrass plant response rating (surinam grass; [3]): 0
- Plant response rating, B. signalgrass (surinam grass; [4]): 0
- B. signalgrass plant response rating (surinam grass; [5]): 0
- B. signalgrass plant response rating (surinam grass; Rate 125 g/ha, Postemergence, scale 0 (no effect) to 10 (complete control)): 0
- Plant response rating, B. signalgrass (surinam grass; Rate 250 g/ha, Postemergence, scale 0 to 10, 0 is no effect, 10 is complete control): 0
- B. signalgrass plant response rating (surinam grass; Rate 500 g/ha, Postemergence, scale 0 to 10, 0 no effect, 10 complete control): 0
- Cocklebur plant response rating (cocklebur; [1]): 0
- Cocklebur plant response rating (0 to 10 scale) (cocklebur; [2]): 0
- Cocklebur plant response rating (cocklebur; [3]): 0
- Plant response rating, Cocklebur (cocklebur; [4]): 0
- Cocklebur plant response rating (cocklebur; [5]): 0
- Cocklebur plant response rating (cocklebur; [6]): 0
- Plant response rating (0 to 10; 0 is no effect, 10 is complete control), Cocklebur (cocklebur; Rate 250 g/ha, Postemergence): 0
- Cocklebur plant response rating (cocklebur; [7]): 0
- Corn plant response rating (corn; [1]): 0
- Corn plant response rating (0 to 10 scale) (corn; [2]): 0
- Corn plant response rating (corn; [3]): 0
- Plant response rating, Corn (corn; [4]): 0
- Corn plant response rating (corn; [5]): 0
- Corn plant response rating (corn; [6]): 0
- Plant response rating (0 to 10; 0 is no effect, 10 is complete control), Corn (corn; Rate 250 g/ha, Postemergence): 0
- Corn plant response rating (corn; [7]): 0
- Crabgrass plant response rating (0 to 10 scale) (crabgrass; [2]): 4
- Crabgrass plant response rating (crabgrass; [3]): 6
- Plant response rating, Crabgrass (crabgrass; [4]): 7
- Crabgrass plant response rating (crabgrass; [5]): 0
- Crabgrass plant response rating (crabgrass; [6]): 0
- Plant response rating (0 to 10; 0 is no effect, 10 is complete control), Crabgrass (crabgrass; Rate 250 g/ha, Postemergence): 0
- Crabgrass plant response rating (crabgrass; [7]): 0
- Giant foxtail plant response rating (giant foxtail; [1]): 2
- Giant foxtail plant response rating (0 to 10 scale) (giant foxtail; [2]): 4
- Giant foxtail plant response rating (giant foxtail; [3]): 5
- Plant response rating, Giant foxtail (giant foxtail; [4]): 6
- Giant foxtail plant response rating (giant foxtail; [5]): 0
- Giant foxtail plant response rating (giant foxtail; [6]): 0
- Plant response rating (0 to 10; 0 is no effect, 10 is complete control), Giant foxtail (giant foxtail; Rate 250 g/ha, Postemergence): 0
- Giant foxtail plant response rating (giant foxtail; [7]): 0
- Morningglory plant response rating (morningglory; [1]): 0
- Morningglory plant response rating (0 to 10 scale) (morningglory; [2]): 0
- Morningglory plant response rating (morningglory; [3]): 0
- Plant response rating, Morningglory (morningglory; [4]): 0
- Morningglory plant response rating (morningglory; [5]): 0
- Morningglory plant response rating (morningglory; [6]): 0
- Plant response rating (0 to 10; 0 is no effect, 10 is complete control), Morningglory (morningglory; Rate 250 g/ha, Postemergence): 1
- Morningglory plant response rating (morningglory; [7]): 2
- Soybean plant response rating (soybean; [1]): 0
- Soybean plant response rating (0 to 10 scale) (soybean; [2]): 0
- Soybean plant response rating (soybean; [3]): 0
- Plant response rating, Soybean (soybean; [4]): 0
- Soybean plant response rating (soybean; [5]): 0
- Soybean plant response rating (soybean; [6]): 1
- Plant response rating (0 to 10; 0 is no effect, 10 is complete control), Soybean (soybean; Rate 250 g/ha, Postemergence): 1
- Soybean plant response rating (soybean; [7]): 2
- Velvetleaf plant response rating (velvetleaf; [1]): 0
- Velvetleaf plant response rating (velvetleaf; [3]): 0
- Plant response rating, Velvetleaf (velvetleaf; [4]): 0
- Velvetleaf plant response rating (velvetleaf; [5]): 0
- Velvetleaf plant response rating (velvetleaf; [6]): 0
- Plant response rating (0 to 10; 0 is no effect, 10 is complete control), Velvetleaf (velvetleaf; Rate 250 g/ha, Postemergence): 0
- Wheat plant response rating (wheat; [1]): 0
- Wheat plant response rating (wheat; [3]): 0
- Plant response rating, Wheat (wheat; [4]): 0
- Wheat plant response rating (wheat; [5]): 0
- Wheat plant response rating (wheat; [6]): 0
- Plant response rating (0 to 10; 0 is no effect, 10 is complete control), Wheat (wheat; Rate 250 g/ha, Postemergence): 0
- Wild oats plant response rating (wild oat; [1]): 0
- Wild oats plant response rating (wild oat; [3]): 0
- Plant response rating, Wild oats (wild oat; [4]): 0
- Wild oats plant response rating (wild oat; [5]): 0
- Wild oats plant response rating (wild oat; [6]): 0
- Plant response rating (0 to 10; 0 is no effect, 10 is complete control), Wild oats (wild oat; Rate 250 g/ha, Postemergence): 0
- Nutsedge plant response rating (purple nutsedge; [1]): 0
- Nutsedge plant response rating (0 to 10 scale) (purple nutsedge; [2]): 0
- Nutsedge plant response rating (purple nutsedge; [3]): 0
- Plant response rating, Nutsedge (purple nutsedge; [4]): 0
- Nutsedge plant response rating (purple nutsedge; [5]): 0
- Nutsedge plant response rating (purple nutsedge; [6]): 0
- Plant response rating (0 to 10; 0 is no effect, 10 is complete control), Nutsedge (purple nutsedge; Rate 250 g/ha, Postemergence): 0
- Nutsedge plant response rating (purple nutsedge; [7]): 0
- Rice plant response rating (rice; [8]): 0
- Rice plant response rating (rice; [9]): 0
- Rice plant response rating (rice; [10]): 0
- Plant response rating, Rice (rice; [11]): 0
- S. Flatsedge plant response rating (smallflower flatsedge; [8]): 0
- S. Flatsedge plant response rating (smallflower flatsedge; [9]): 0
- S. Flatsedge plant response rating (smallflower flatsedge; [10]): 0
- S. Flatsedge plant response rating (smallflower flatsedge; Rate 500 g/ha, Pre-emergence, flood test species, scale 0 to 10 (0 no effect, 10 complete control)): 0
- Ducksalad plant response rating (duck salad; [8]): 0
- Ducksalad plant response rating (duck salad; [9]): 0
- Ducksalad plant response rating (duck salad; [10]): 0
- Plant response rating, Ducksalad (duck salad; [11]): 0
- Barnyardgrass plant response rating (bamyardgrass; [8]): 0
- Barnyardgrass plant response rating (bamyardgrass; [9]): 0
- Barnyardgrass plant response rating (bamyardgrass; [10]): 0
- Plant response rating, Barnyardgrass (bamyardgrass; [11]): 0
